Consider nine compounds from paper PMC9686657, “Protection against Oxidative Stress and Metabolic Alterations by Synthetic Peptides Derived from Erythrina edulis Seed Protein” (Antioxidants, 2022).

Read-outs that look alike come from different tables or passages of the source. Ends that are not written are not given here. Peptide text beside a SMILES is read from it.

For data set [1], the target named is α-glucosidase. Conditions: ref Vilcacundo et al. [46]; read-out: α-glucosidase inhibitory capacity (IC50); cited from earlier work.
The subject of data set [2] is SH-SY5Y cells. The data set can be described thus: Cell viability, MTT assay. In kind it is cell-based, human. Conditions: basal conditions, highest concentration 100 µM, 24 h; data not shown. As for the experimental part: Human neuroblastoma SH-SY5Y cells were obtained from the American Type Culture Collection (ATCC, […], Rockville, MD, USA) and grown in RPMI-1640 medium supplemented with 10% FBS, 2 mM L-glutamine, 1 mM sodium pyruvate, 1 mM NEAA, and 50 μg/mL gentamicin in a humidified incubator containing 5% CO2 and 95% air at 37 °C.
The effects of pajuro-derived peptides on cell viability were determined using the MTT assay, following the protocol previously described by Palma-Albino et al.. SH-SY5Y cells were seeded (2 × 10^4 cells/well) onto 96-well plates in complete medium with 1% FBS and incubated at 37 °C for 16 h. After discarding the culture medium, the peptide sample was added (at concentration of 10, 25, and 100 µM), and the plate was incubated for 24 h. Upon removing the supernatant, a MTT solution (2 mg/mL) was added, and the plate was incubated for 60 min at 37 °C. After this time, the supernatant was discarded, and the formazan crystals were dissolved in dimetilsulfoxide (DMSO). The absorbance was measured at 570 nm in the Infinite M200 Pro plate reader (Tecan Group AG). Three independent runs were performed for each sample. The results were expressed as percentage of the control, considered as 100%.

In data set [3] the target is T1, ACE from rabbit lung (Oryctolagus cuniculus, UniProt P12822).
T1 construct: ACE from rabbit lung; purchased Sigma-Aldrich; host or cells: rabbit lung tissue
T1 sequence (P12822 34-1310): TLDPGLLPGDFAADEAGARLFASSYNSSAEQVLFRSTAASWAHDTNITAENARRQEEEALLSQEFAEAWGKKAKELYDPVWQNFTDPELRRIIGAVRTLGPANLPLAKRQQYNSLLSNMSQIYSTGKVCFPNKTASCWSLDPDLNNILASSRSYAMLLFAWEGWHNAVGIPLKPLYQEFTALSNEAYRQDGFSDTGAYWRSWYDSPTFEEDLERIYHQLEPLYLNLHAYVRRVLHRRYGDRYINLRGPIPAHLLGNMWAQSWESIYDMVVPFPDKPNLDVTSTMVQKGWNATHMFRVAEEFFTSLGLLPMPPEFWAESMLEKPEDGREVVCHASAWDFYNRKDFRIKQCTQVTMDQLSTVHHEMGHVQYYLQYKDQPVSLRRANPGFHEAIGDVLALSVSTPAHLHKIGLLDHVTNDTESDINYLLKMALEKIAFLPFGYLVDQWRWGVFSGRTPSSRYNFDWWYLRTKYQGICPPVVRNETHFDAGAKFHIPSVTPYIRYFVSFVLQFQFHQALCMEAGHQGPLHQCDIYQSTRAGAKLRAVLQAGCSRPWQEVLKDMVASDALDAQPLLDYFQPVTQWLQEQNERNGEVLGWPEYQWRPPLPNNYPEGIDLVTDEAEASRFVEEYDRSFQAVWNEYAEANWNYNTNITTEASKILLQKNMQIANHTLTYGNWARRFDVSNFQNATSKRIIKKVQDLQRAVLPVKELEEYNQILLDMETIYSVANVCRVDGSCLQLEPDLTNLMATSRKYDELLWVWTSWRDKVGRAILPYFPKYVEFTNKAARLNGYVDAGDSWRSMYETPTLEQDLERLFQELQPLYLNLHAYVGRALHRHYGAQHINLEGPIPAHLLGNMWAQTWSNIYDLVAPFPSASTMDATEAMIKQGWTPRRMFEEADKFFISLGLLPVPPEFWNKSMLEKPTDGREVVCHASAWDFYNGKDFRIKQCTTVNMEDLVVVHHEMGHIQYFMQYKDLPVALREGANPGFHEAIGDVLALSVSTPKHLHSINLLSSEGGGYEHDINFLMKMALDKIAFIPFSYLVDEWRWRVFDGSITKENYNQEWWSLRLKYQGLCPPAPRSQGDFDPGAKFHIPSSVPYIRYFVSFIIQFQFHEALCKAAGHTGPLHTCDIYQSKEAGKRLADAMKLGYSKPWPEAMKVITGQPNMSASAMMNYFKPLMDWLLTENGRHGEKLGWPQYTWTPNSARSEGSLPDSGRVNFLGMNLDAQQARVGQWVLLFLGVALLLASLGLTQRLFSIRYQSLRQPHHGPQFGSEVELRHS
The experiment in a line: ACE inhibitory activity (HHL substrate). It is filed as biochemical. Conditions: n.d. = activity not detected; mean ± SD; read-out: ACE Inhibition (IC50). The protocol: The in vitro ACE inhibitory activity of peptides was measured following the methodology described by Hayakari et al., with some modifications. […] It was incubated at 37 °C for 60 min. […] Three independent runs were performed for each sample.

The target in data set [4] is T2, DPP-IV (Homo sapiens, UniProt P27487).
T2 construct: purchased Sigma-Aldrich MAK203
T2 sequence (P27487 whole entry): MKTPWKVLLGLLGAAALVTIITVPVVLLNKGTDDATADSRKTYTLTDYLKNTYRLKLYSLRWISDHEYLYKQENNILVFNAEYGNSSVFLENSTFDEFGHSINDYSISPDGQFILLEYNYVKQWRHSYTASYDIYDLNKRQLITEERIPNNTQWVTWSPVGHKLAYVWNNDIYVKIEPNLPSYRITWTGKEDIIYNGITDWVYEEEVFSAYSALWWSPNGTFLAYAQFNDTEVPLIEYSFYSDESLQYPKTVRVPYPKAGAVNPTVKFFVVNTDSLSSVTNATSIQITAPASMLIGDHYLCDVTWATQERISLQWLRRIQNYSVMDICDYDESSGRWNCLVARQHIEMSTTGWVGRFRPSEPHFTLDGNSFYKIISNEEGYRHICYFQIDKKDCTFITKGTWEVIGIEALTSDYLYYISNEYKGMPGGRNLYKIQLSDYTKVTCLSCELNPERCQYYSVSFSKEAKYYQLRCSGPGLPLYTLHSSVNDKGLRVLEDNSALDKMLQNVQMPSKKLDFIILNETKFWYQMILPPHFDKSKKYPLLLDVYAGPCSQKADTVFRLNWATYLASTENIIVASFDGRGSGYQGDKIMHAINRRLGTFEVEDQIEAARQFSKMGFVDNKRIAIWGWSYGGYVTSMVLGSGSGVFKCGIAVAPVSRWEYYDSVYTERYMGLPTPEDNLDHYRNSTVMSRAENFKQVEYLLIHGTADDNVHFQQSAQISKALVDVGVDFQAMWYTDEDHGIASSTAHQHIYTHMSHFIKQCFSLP
The data set can be described thus: DPP-IV inhibitory activity (Inhibitor Screening Kit MAK203). In kind it is biochemical. Conditions: n.d. = activity not detected; mean ± SD; read-out: DPP-IV Inhibition (IC50). As for the experimental part:
The DPP-IV inhibitory activity was determined using the DPP-IV Inhibitor Screening Kit MAK203, according to the manufacturer’s instructions. […] After this time, the fluorescence was measured each 2 min at λexcitation and λemission of 360 and 460 nm, respectively, in the Infinite M200 Pro plate reader (Tecan Group AG). Three independent runs were performed for each sample. The results were expressed as IC50 value.

Data set [5] concerns α-glucosidase from Saccharomyces cerevisiae. The data set can be described thus: α-glucosidase inhibitory activity. It is filed as biochemical. Particulars: control acarbose at 10 mM. The protocol: The α-glucosidase inhibitory activity was determined as previously reported, with some modifications. […] Three independent runs were performed for each sample. The results were expressed as percentage of the negative control, considered as 100%.

For data set [6], the system named is T3, α-amylase type VI-B from porcine pancreas.
T3 construct: α-amylase type VI-B from porcine pancreas; purchased Sigma-Aldrich; host or cells: porcine pancreas tissue
The experiment in a line: α-amylase inhibition assay. It is filed as biochemical. Conditions: control acarbose at 10 mM. The protocol: The α-amylase inhibition assay was carried out following the methods described by Subramanian et al. and Kumar et al., with some modifications. Then, 200 µL of mixture, containing α-amylase (800 mU), 0.125% starch, and peptide (100 µM) or standard (at different concentrations) in 0.1 M phosphate buffer (pH 6.9), was incubated at 37 °C for 30 min. After adding 100 µL of a solution containing 1% 3,5-dinitrosalicylic acid and 30% sodium potassium tartrate in 0.4 M NaOH, shaking, and incubating at 100 °C for 10 min, the absorbance was measured at 540 nm in an Infinite M200 Pro plate reader (Tecan Group AG). Three independent runs were performed for each sample. The results were expressed as percentage of the negative control, considered as 100%.

For data set [7], the system named is T4, porcine pancreatic lipase type II.
T4 construct: porcine pancreatic lipase type II; purchased Sigma-Aldrich; host or cells: porcine pancreas tissue
The data set can be described thus: Pancreatic lipase inhibitory activity. Particulars: control orlistat at 0.5 µM. It is filed as biochemical. As for the experimental part: The pancreatic lipase inhibitory activity was determined following the protocols previously described, with some modifications. […] Three independent runs were performed for each sample. The results were expressed as percentage of the negative control, considered as 100%.

For data set [8], the target named is T2, DPP-IV. Conditions: literature value; cited from earlier work.

In the case of IQAEGGLT, the IC50 in data set [1] is 110 µM.

In the case of SQLPGW [SQLPGW], the “effect on cell viability (cytotoxicity)” value in data set [2] is on record as “None of them, at the highest concentration assayed (100 µM), affected the cell viability”. For the same compound, the IC50 in data set [3] stood at 50.5 ± 0.95 µM.

For the compound MFTGPY [MFTGPY], in data set [2], the “effect on cell viability (cytotoxicity)” value is recorded as “None of them, at the highest concentration assayed (100 µM), affected the cell viability”. Besides, the IC50 in data set [4] was found to be 214 ± 2.83 µM.

Regarding `C[C@H]1O[C@H](O[C@H]2[C@H](O)[C@@H](O)[C@@H](O[C@H]3[C@H](O)[C@@H](O)C(O)O[C@@H]3CO)O[C@@H]2CO)[C@H](O)[C@@H](O)[C@@H]1N[C@H]1C=C(CO)[C@@H](O)[C@H](O)[C@H]1O` (stereo partly shown) [acarbose], the “α-Glucosidase Inhibition” value in data set [5] is 62.36 ± 0.54%. Moreover, the “α-Amylase Inhibition” value in data set [6] turned out to be 75.05 ± 1.55%.

In the case of DGLGYY [DGLGYY], the “effect on cell viability (cytotoxicity)” value in data set [2] was “None of them, at the highest concentration assayed (100 µM), affected the cell viability”. In data set [3], the IC50 stood at 82.6 ± 0.58 µM.

For the compound `N[C@@H](Cc1ccc(O)cc1)C(=O)N1CCC[C@H]1C(=O)N[C@@H](CO)C(=O)N[C@@H](Cc1ccc(O)cc1)C(=O)O` [YPSY] (H-YPSY-OH; N-terminus and C-terminus assumed), the “effect on cell viability (cytotoxicity)” value in data set [2] was “None of them, at the highest concentration assayed (100 µM), affected the cell viability”. The IC50 was found to be 32.6 ± 1.6 µM in data set [4] and 115.6 ± 0.26 µM in data set [3].

As to `CCCCCCCCCCC[C@@H](C[C@@H]1OC(=O)[C@H]1CCCCCC)OC(=O)[C@H](CC(C)C)NC=O` [orlistat], the “Pancreatic lipase Inhibition” value in data set [7] is recorded as 94.62 ± 0.90%.

On to diprotin A, for which, in data set [8], the IC50 is 24.7 µM.

As to AALWE [AALWE], the “effect on cell viability (cytotoxicity)” value in data set [2] is on record as “None of them, at the highest concentration assayed (100 µM), affected the cell viability”. In addition, the IC50 in data set [4] is 131 ± 2.34 µM.
